The values that follow come from patent publication US20210284621A1 (priority 2018, published 2021).

Each structure is given as a SMILES string. Entries after “also recorded” stand apart in the source; their conditions may differ. Like-named read-outs stand apart in the source and are kept apart here. Where only a bound is given, the exact number is not on record here.

Data set [1] concerns the target T1, CB2 receptor (Homo sapiens, UniProt P34972). Briefly: CB2 competitive radioligand binding assay ([3H] WIN-55,212-2). The arrangement: expressed in transfected cells; host or cells: CHO-K1 cells. Conditions: for inhibition at 0.05 µM: 0.05 μM compound, 2.4 nM [3H] WIN-55,212-2, 90 min 37° C.; for Fold Selectivity (CB1/CB2): Table 2, ratio of Ki CB1/CB2. An outline of the steps:
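CHO-K1 cells expressing human recombinant CB2 were incubated with compound (0.05 μM, 1% DMSO) and 2.4 nM [3H]WIN-55,212-2 in 20 mM HEPES pH 7.0, 0.5% BSA for 90 min at 37 °C. Percent inhibition of radioligand binding was reported.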

Data set [2] addresses T1, CB2 receptor. Put plainly: cell-based. Further details: host or cells: cAMP Hunter cell lines. An outline of the steps:
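PathHunter β-Arrestin enzyme fragment complementation cells, EA-tagged β-Arrestin and PK-tagged receptor, exposed to compound for 90 to 180 minutes at 37° C. or room temperature, 1% vehicle. Chemiluminescence read 1 h after detection reagent; agonist % activity relative to vehicle and MAX control ligand.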

Data set [3] relates to 12 systems of human primary cells. Briefly: BioMAP Diversity PLUS phenotypic screen. In kind it is cell-based. Conditions: 3.3 μM; for Anti-proliferation: cell type in which anti-proliferative effect was seen; for Immune modulation, cell surface and tissue remodeling biomarkers: changes at least 1.5-fold from vehicle control. How it is done:
Compounds of the invention were assayed for their effects on 148 biomarkers of inflammation, immune modulation and tissue remodeling in the BioMAP® Diversity PLUS® (DiscoverX) platform designed to model aspects of human diseases in vitro (Kunkel 2004, Berg 2006, Melton 2013).
The example compounds (3.3 μM) in Table 8 induced increases or decreases in the levels of the indicated 20 biomarkers, which are at least 1.5-fold change from vehicle control and are outside the significance prediction envelop. All compounds presented in Table 8 were not cytotoxic at the concentration tested.

Data set [4] has as its target T1, CB2 receptor. Put plainly: cAMP Assay #2: Hit Hunter cAMP assay, Gi-coupled agonist activity, CB2. In kind it is cell-based. The arrangement: host or cells: cAMP Hunter cell lines. Conditions: for CB2 fold selectivity: CB1 EC50 / CB2 EC50. Background: cAMP levels reflect the balance of adenylyl cyclase and phosphodiesterase activity.
Data set [5] is described as follows: Pharmacokinetics after IV dose in mice. Conditions: in vivo, 1 mg/kg IV, male C57BL/6 mice; for AUC(0-t): male, C57BL/6, mouse, iv, 1 mg/kg; for AUC(0-inf) / C0 / MRT inf / clearance / half-life / Vd: mouse; for Vd: read-out: Vss. The protocol:
Male C57BL/6 mice were administered an intravenous (IV) dose of 1 mg/kg of the indicated compound.

The nature of data set [6]: Pharmacokinetics after PO dose in mice. In kind it is in vivo, Male C57BL/6 mice. Particulars: 10 mg/kg PO; for AUC(0-inf) / Cmax / MRT inf / Tmax / half-life / AUC(0-t): male, C57BL/6, mouse, in vivo; for AUC(0-t): read-out: AUC0-24 hr.
[7] abbreviates: Table 2, read-out: CB2 Binding Ki.
Setting [8] is: PathHunter agonist mode, read-out: CB2 Activity (β-Arrestin).
The mark [9] stands for this setting: Hit Hunter cAMP, 25 μM forskolin, control ligand CP55,940, read-out: CB2, EC50.

T1 sequence (P34972 whole entry): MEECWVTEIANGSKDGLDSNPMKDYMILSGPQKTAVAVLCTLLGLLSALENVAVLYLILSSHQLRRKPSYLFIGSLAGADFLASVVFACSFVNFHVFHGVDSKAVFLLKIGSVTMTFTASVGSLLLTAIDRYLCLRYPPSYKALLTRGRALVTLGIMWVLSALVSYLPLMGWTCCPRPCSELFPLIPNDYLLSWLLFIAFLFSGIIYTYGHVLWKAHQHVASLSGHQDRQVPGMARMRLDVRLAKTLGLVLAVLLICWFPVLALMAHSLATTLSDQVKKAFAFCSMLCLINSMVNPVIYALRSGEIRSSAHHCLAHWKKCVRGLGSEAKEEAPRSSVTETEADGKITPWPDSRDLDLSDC

On to `CCCCCCC(C)(C)c1cc(O)c2c(c1)OC(C)(C)[C@@H]1CC=C(C(=O)NC(CO)CO)C[C@@H]21` [Compound 25, (6aR,10aR)-N-(1,3-Dihydroxypropan-2-yl)-1-hydroxy-6,6-dimethyl-3-(2-methyloctan-2-yl)-6a,7,10,10a-tetrahydro-6H-benzo[c]chromene-9-carboxamide], for which, on CB2 receptor [1], the inhibition at 0.05 µM was 36% and the “Fold Selectivity (CB1/CB2)” value worked out at 4.33. For the same compound, the Ki at CB2 receptor [1] (setting [7]) was 73 nM. For the same compound, on CB2 receptor [2] (setting [8]), the EC50 came to 10 nM. Moreover, in data set [3], the Anti-proliferation result is “Dermal fibroblasts”; the “Immune modulation, cell surface and tissue remodeling biomarkers” value is “Reduced VCAM-1, PAI-I, IL-10, and M-CSF; increased MMP-1”. Moreover, the EC50 on CB2 receptor [4] (setting [9]) was 9 nM. This compound also came in with a CB2 fold selectivity at CB2 receptor [4] (Hit Hunter cAMP) of 40.0.
In the case of `CCCCCCC(C)(C)c1cc(O)c2c(c1)OC(C)(C)[C@@H]1CC=C(C(=O)OC(C)C)C[C@@H]21` [Compound 29, Isopropyl (6aR,10aR)-1-hydroxy-6,6-dimethyl-3-(2-methyloctan-2-yl)-6a,7,10,10a-tetrahydro-6H-benzo[c]chromene-9-carboxylate], the inhibition at 0.05 µM on CB2 receptor [1] worked out at 79%. Also, in data set [5] (read-out: AUC0-24 hr), the AUC(0-t) came to 3.55 µg·h/mL. For the same compound, the AUC(0-t) in data set [5] (read-out: AUClast) came out at 3.55 µg·h/mL. In data set [5], this compound showed an AUC(0-inf) of 3.57 µg·h/mL, a C0 of 17.5 µg/mL, an MRT inf of 1.53 h and a clearance of 0.28 L/h/kg. Moreover, in data set [5], the half-life is 4.89 h and the Vd came out at 0.43 L/kg. Besides, on CB2 receptor [2] (setting [8]), the EC50 is 3 nM. In data set [6], this compound came in with an F of 3.98%, a Tlag of 0.00 h, an AUC(0-inf) of 1.42 µg·h/mL and a Cmax of 0.203 µg/mL. Besides, in data set [6], the MRT inf stood at 6.2 h, the Tmax was determined as 6 h, the half-life was 4.21 h and the AUC(0-t) amounted to 1.4 µg·h/mL. Besides, in data set [3], the Anti-proliferation result is reported as “Dermal fibroblasts”; the “Immune modulation, cell surface and tissue remodeling biomarkers” value is “Reduced Eotaxin-3, IL-8, E-selectin, P-selectin, VCAM, EGFR,; also recorded: IL-1α, IP-10, and PAI-I”. This compound displayed an EC50 on CB2 receptor [4] of 1 nM. The CB2 fold selectivity at CB2 receptor [4] (Hit Hunter cAMP) amounted to 9.6.
For the compound `CCCCCCC(C)(C)c1cc(O)c2c(c1)OC(C)(C)[C@@H]1CC=C(C(=O)NC[C@H](O)CO)C[C@@H]21` [Compound 56, (6aR,10aR)-N—((S)-2,3-Dihydroxypropyl)-1-hydroxy-6,6-dimethyl-3-(2-methyloctan-2-yl)-6a,7,10,10a-tetrahydro-6H-benzo[c]chromene-9-carboxamide], the “Fold Selectivity (CB1/CB2)” value on CB2 receptor [1] amounted to 17. For the same compound, the Ki on CB2 receptor [1] (setting [7]) is 41 nM. The AUC(0-t) in data set [5] (read-out: AUC0-24 hr) was determined as 2.08 µg·h/mL. Also, the AUC(0-t) in data set [5] (read-out: AUClast) came to 1.79 µg·h/mL. In data set [5], the AUC(0-inf) stood at 1.92 µg·h/mL, the C0 came out at 2.79 µg/mL, the MRT inf was 2.3 h and the clearance is 0.522 L/h/kg. In addition, in data set [5], the half-life is 2.39 h and the Vd stood at 1.2 L/kg. Moreover, the EC50 on CB2 receptor [2] (setting [8]) worked out at 6.9 nM. In data set [6], the F was found to be 23.11%, the Tlag stood at 0 h, the area under the curve AUC(0-inf) stood at 4.43 µg·h/mL and the Cmax worked out at 0.902 µg/mL. For the same compound, in data set [6], the MRT inf worked out at 4.89 h, the Tmax amounted to 1 h, the half-life is 2.63 h and the AUC(0-t) amounted to 4.42 µg·h/mL. Further, the EC50 at CB2 receptor [4] (setting [9]) is 8.4 nM. Moreover, at CB2 receptor [4] (Hit Hunter cAMP), the CB2 fold selectivity came to 30.0.
Turning to `CCCCCCC(C)(C)c1cc(O)c2c(c1)OC(C)(C)[C@@H]1CC=C(C(=O)NC[C@@H](O)CO)C[C@@H]21` [Compound 55, (6aR,10aR)-N—((R)-2,3-Dihydroxypropyl)-1-hydroxy-6,6-dimethyl-3-(2-methyloctan-2-yl)-6a,7,10,10a-tetrahydro-6H-benzo[c]chromene-9-carboxamide], the “Fold Selectivity (CB1/CB2)” value on CB2 receptor [1] turned out to be 19. In addition, the Ki at CB2 receptor [1] (setting [7]) is 33 nM. Moreover, the AUC(0-t) in data set [5] (read-out: AUC0-24 hr) came out at 2.36 µg·h/mL. Further, the AUC(0-t) in data set [5] (read-out: AUClast) is 2.36 µg·h/mL. Further, in data set [5], the AUC(0-inf) was 2.38 µg·h/mL, the C0 was found to be 3.06 µg/mL, the MRT inf came to 3.38 h and the clearance is 0.421 L/h/kg. Further, in data set [5], the half-life is 3.99 h and the Vd was 1.42 L/kg. At CB2 receptor [2] (setting [8]), the EC50 was 6.9 nM. In data set [6], this compound returned an F of 30.33%, a Tlag of 0 h, an AUC(0-inf) of 7.21 µg·h/mL and a Cmax of 0.882 µg/mL. In data set [6], the MRT inf was found to be 6.4 h, the Tmax is 1 h, the half-life is 2.72 h and the AUC(0-t) turned out to be 7.17 µg·h/mL. Besides, the Anti-proliferation entry in data set [3] is “Dermal fibroblasts”. At CB2 receptor [4] (setting [9]), the EC50 was found to be 5.7 nM. In addition, the CB2 fold selectivity on CB2 receptor [4] (Hit Hunter cAMP) worked out at 30.5.
In the case of `CCCCCCC(C)(C)c1cc(O)c2c(c1)OC(C)(C)[C@@H]1CC=C(C(=O)NC(C)(C)CCO)C[C@@H]21` [Compound 15, (6aR,10aR)-1-Hydroxy-N-(4-hydroxy-2-methylbutan-2-yl)-6,6-dimethyl-3-(2-methyloctan-2-yl)-6a,7,10,10a-tetrahydro-6H-benzo[c]chromene-9-carboxamide], on CB2 receptor [1], testing at 0.05 µM gave an inhibition of 54% and the “Fold Selectivity (CB1/CB2)” value was found to be 18.3. Besides, the Ki at CB2 receptor [1] (setting [7]) is 36 nM. Moreover, the AUC(0-t) in data set [5] (read-out: AUC0-24 hr) is 1.72 µg·h/mL. The AUC(0-t) in data set [5] (read-out: AUClast) was 1.51 µg·h/mL. For the same compound, in data set [5], the AUC(0-inf) amounted to 1.57 µg·h/mL, the C0 is 1.83 µg/mL, the MRT inf stood at 2.16 h and the clearance is 0.635 L/h/kg. In data set [5], the half-life was 1.74 h and the Vd is 1.37 L/kg. Also, on CB2 receptor [2] (setting [8]), the EC50 is more than 3000 nM. Also, in data set [6], the F is 37.4%, the Tlag was 0.00 h, the AUC(0-inf) was found to be 5.89 µg·h/mL and the Cmax was found to be 0.779 µg/mL. Further, in data set [6], the MRT inf was found to be 5.07 h, the Tmax was found to be 4 h, the half-life is 2.65 h and the AUC(0-t) was 5.87 µg·h/mL. At CB2 receptor [4] (setting [9]), the EC50 came out at 2.7 nM. This compound also showed a CB2 fold selectivity on CB2 receptor [4] (Hit Hunter cAMP) of 164.1.
On CB2 receptor [1], `CCCCCCC(C)(C)c1cc(O)c2c(c1)OC(C)(C)[C@@H]1CC=C(C(=O)O)C[C@@H]21` [AJA, (6aR,10aR)-1-hydroxy-6,6-dimethyl-3-(2-methyl-2-octanyl)-6a,7,10,10a-tetrahydro-6H-benzo[c]chromene-9-carboxylic acid, reference compound] showed a Ki of 633 nM and an inhibition at 0.05 µM of 0%. In addition, the AUC(0-t) in data set [5] (read-out: AUC0-24 hr) came out at 2.77 µg·h/mL. In addition, in data set [5] (read-out: AUClast), the AUC(0-t) stood at 2.42 µg·h/mL. In data set [5], this compound gave an AUC(0-inf) of 2.51 µg·h/mL, a C0 of 1.75 µg/mL, an MRT inf of 1.89 h and a clearance of 0.4 L/h/kg. Further, in data set [5], the half-life was 1.41 h and the Vd was determined as 0.75 L/kg. The same compound displayed an EC50 at CB2 receptor [2] of 11 nM. Further, in data set [6], the F is given as 70.79%, the Tlag is 0 h, the AUC(0-inf) turned out to be 17.8 µg·h/mL and the Cmax was 3.86 µg/mL. Further, in data set [6], the MRT inf turned out to be 3.42 h, the Tmax was 1 h, the half-life was 2.19 h and the AUC(0-t) was 17.8 µg·h/mL. Also, on CB2 receptor [4], the EC50 was 7 nM. The compound also returned a CB2 fold selectivity at CB2 receptor [4] (Hit Hunter cAMP) of 11.0.

In general, inhibition refers to the relative decrease from the control value, in per cent. A higher inhibition goes with a strong effect. What is called Ki is a measure of affinity in units of concentration, obtained from inhibition or displacement. By AUC(0-inf) is commonly meant total exposure, with the tail of the curve extrapolated. As a reminder, the MRT inf is the average time that molecules of a dose stay in the body. As usually defined, the clearance is a measure of how efficiently the substance is removed, as volume per time. The half-life is the time needed for the level to fall by half in the phase considered. The low end stands for rapid decline, the high end for slow decline. For orientation: Cmax means the maximum level reached in the sampled fluid or tissue. One may read the Tmax as the time from dosing to the highest level.
